Melting point data for 30 molecules are collected here from patent US7196090B2, “Kinase inhibitors” (Warner-Lambert Company, priority 2002, dated 2007).

For orientation: melting point means the temperature, or range, at which the solid turns liquid. Turning to `CCN1C(=O)N(c2cc(OC)cc(OC)c2F)Cc2cnc(NCCOCCO)nc21` [Example 34, 1-Ethyl-3-(2-fluoro-3,5-dimethoxy-phenyl)-7-[2-(2-hydroxy-ethoxy)-ethylamino]-3,4-dihydro-1H-pyrimido[4,5-d]pyrimidin-2-one], the melting point was in the range of 143 to 146 °C. For the molecule `CCN1C(=O)N(c2c(F)c(OC)cc(OC)c2F)Cc2cnc(NCC(O)C(C)O)nc21` (stereo not drawn) [Example 21, 3-(2,6-Difluoro-3,5-dimethoxy-phenyl)-7-(2,3-dihydroxy-butylamino)-1-ethyl-3,4-dihydro-1H-pyrimido[4,5-d]pyrimidin-2-one], the melting point is 171 to 173 °C. `COc1cc(OC)c(F)c(N2Cc3cnc(NC[C@H](O)[C@@H](O)CO)nc3N(C3CCCC3)C2=O)c1` [Example 16, 1-Cyclopentyl-3-(2-fluoro-3,5-dimethoxy-phenyl)-7-([S,S]-2,3,4-trihydroxy-butylamino)-3,4-dihydro-1H-pyrimido[4,5-d]pyrimidin-2-one] gave a melting point of 86 to 88 °C. Then `CCN1C(=O)N(c2c(F)c(OC)cc(OC)c2F)Cc2cnc(NC3CCC(O)CC3)nc21` (stereo not drawn) [Example 12, 3-(2,6-Difluoro-3,5-dimethoxy-phenyl)-1-ethyl-7-(4-hydroxy-cyclohexylamino)-3,4-dihydro-1H-pyrimido[4,5-d]pyrimidin-2-one], with 198 to 202 °C. With `CCN(CC)CCCCNc1ncc2c(n1)N(CC)C(=O)N(c1c(F)c(OC)cc(OC)c1F)C2` [Example 10, 7-(4-Diethylamino-butylamino)-3-(2,6-difluoro-3,5-dimethoxy-phenyl)-1-ethyl-3,4-dihydro-1H-pyrimido[4,5-d]pyrimidin-2-one], the melting point fell in the range of 140 to 141 °C. Take `COc1cc(OC)c(F)c(N2Cc3cnc(NC(CO)CO)nc3N(C3CCCC3)C2=O)c1` [Example 25, 1-Cyclopentyl-3-(2-fluoro-3,5-dimethoxy-phenyl)-7-(2-hydroxy-1-hydroxymethyl-ethylamino)-3,4-dihydro-1H-pyrimido[4,5-d]pyrimidin-2-one]: the melting point was 194 to 195 °C.

Turning to `COc1cc(OC)c(F)c(N2Cc3cnc(NCC(O)C(C)O)nc3N(C3CCCC3)C2=O)c1F` (stereo not drawn) [Example 13, 1-Cyclopentyl-3-(2,6-difluoro-3,5-dimethoxy-phenyl)-7-(2,3-dihydroxy-butylamino)-3,4-dihydro-1H-pyrimido[4,5-d]pyrimidin-2-one], the melting point was 195 to 196 °C (dec.). To `COc1cc(OC)c(F)c(N2Cc3cnc(N)nc3N(C3CCNCC3)C2=O)c1F.O=C(O)C(F)(F)F` belongs 200 to 220 °C (dec.); to `COc1cc(OC)c(F)c(N2Cc3cnc(N[C@H]4CC[C@H](O)CC4)nc3N(C3CCCC3)C2=O)c1` [Example 35, 1-Cyclopentyl-3-(2-fluoro-3,5-dimethoxy-phenyl)-7-(trans-4-hydroxy-cyclohexylamino)-3,4-dihydro-1H-pyrimido[4,5-d]pyrimidin-2-one], 108 to 110 °C. `COc1cc(OC)c(F)c(N2Cc3cnc(NCCOCCO)nc3N(C3CCCC3)C2=O)c1F` [Example 8, 1-Cyclopentyl-3-(2,6-difluoro-3,5-dimethoxy-phenyl)-7-[2-(2-hydroxy-ethoxy)-ethylamino]-3,4-dihydro-1H-pyrimido[4,5-d]pyrimidin-2-one]: the melting point fell in the range of 160 to 163 °C.

For the molecule `CCN1C(=O)N(c2cc(OC)cc(OC)c2F)Cc2cnc(NCCCCO)nc21` [Example 26, 1-Ethyl-3-(2-fluoro-3,5-dimethoxy-phenyl)-7-(4-hydroxy-butylamino)-3,4-dihydro-1H-pyrimido[4,5-d]pyrimidin-2-one], the melting point was 129 to 131 °C. As to `COc1cc(OC)c(F)c(N2Cc3cnc(NC[C@H](O)CO)nc3N(C3CCCC3)C2=O)c1` [Example 27, (S)-1-Cyclopentyl-7-(2,3-dihydroxy-propylamino)-3-(2-fluoro-3,5-dimethoxy-phenyl)-3,4-dihydro-1H-pyrimido[4,5-d]pyrimidin-2-one], the melting point was in the range of 92 to 94 °C. Take `CCN1C(=O)N(c2c(F)c(OC)cc(OC)c2F)Cc2cnc(NCCCN(CCO)CCO)nc21` [Example 19, 7-{3-[Bis-(2-hydroxy-ethyl)-amino]-propylamino}-3-(2,6-difluoro-3,5-dimethoxy-phenyl)-1-ethyl-3,4-dihydro-1H-pyrimido[4,5-d]pyrimidin-2-one]: the melting point was 128 to 129 °C.

In the case of `COc1cc(OC)c(F)c(N2Cc3cnc(NC4CCC(O)CC4)nc3N(C3CCCC3)C2=O)c1F` (stereo not drawn) [Example 5, 1-Cyclopentyl-3-(2,6-difluoro-3,5-dimethoxy-phenyl)-7-(4-hydroxy-cyclohexylamino)-3,4-dihydro-1H-pyrimido[4,5-d]pyrimidin-2-one], the melting point was 208 to 212 °C (dec.). For `CCN1C(=O)N(c2c(F)c(OC)cc(OC)c2F)Cc2cnc(NC(CO)CO)nc21` [Example 11, 3-(2,6-Difluoro-3,5-dimethoxy-phenyl)-1-ethyl-7-(2-hydroxy-1-hydroxymethyl-ethylamino)-3,4-dihydro-1H-pyrimido[4,5-d]pyrimidin-2-one], the melting point was in the range of 168 to 172 °C. Turning to `COc1cc(OC)c(F)c(N2Cc3cnc(NCC(O)C(O)CN)nc3N(C3CCCC3)C2=O)c1F` (stereo not drawn) [Example 15, 7-(4-Amino-2,3-dihydroxy-butylamino)-1-cyclopentyl-3-(2,6-difluoro-3,5-dimethoxy-phenyl)-3,4-dihydro-1H-pyrimido[4,5-d]pyrimidin-2-one], the melting point is 158 °C (dec.).

Consider `CCN1C(=O)N(c2c(F)c(OC)cc(OC)c2F)Cc2cnc(NCCOCCO)nc21` [Example 17, 3-(2,6-Difluoro-3,5-dimethoxy-phenyl)-1-ethyl-7-[2-(2-hydroxy-ethoxy)-ethylamino]-3,4-dihydro-1H-pyrimido[4,5-d]pyrimidin-2-one], for which the melting point lay within 159 to 160 °C. Then `CCN(CC)CCCCNc1ncc2c(n1)N(C1CC1)C(=O)N(c1c(F)c(OC)cc(OC)c1F)C2` [Example 9, 1-Cyclopropyl-7-(4-diethylamino-butylamino)-3-(2,6-difluoro-3,5-dimethoxy-phenyl)-3,4-dihydro-1H-pyrimido[4,5-d]pyrimidin-2-one], with 139 to 141 °C; and `COc1cc(OC)c(F)c(N2Cc3cnc(NCC(O)CO)nc3N(C3CCCC3)C2=O)c1F` (stereo not drawn) [Example 14, 1-Cyclopentyl-3-(2,6-difluoro-3,5-dimethoxy-phenyl)-7-(2,3-dihydroxy-propylamino)-3,4-dihydro-1H-pyrimido[4,5-d]pyrimidin-2-one], with 118 to 122 °C; and `CCN(CC)CCCCNc1ncc2c(n1)N(C1CCCC1)C(=O)N(c1c(F)c(OC)cc(OC)c1F)C2` [Example 2, 1-Cyclopentyl-7-(4-diethylamino-butylamino)-3-(2,6-difluoro-3,5-dimethoxy-phenyl)-3,4-dihydro-1H-pyrimido[4,5-d]pyrimidin-2-one], with 132 to 133 °C. On to `COc1cc(OC)c(F)c(N2Cc3cnc(NCC(O)CN)nc3N(C3CCCC3)C2=O)c1F` (stereo not drawn) [Example 7, 7-(3-Amino-2-hydroxy-propylamino)-1-cyclopentyl-3-(2,6-difluoro-3,5-dimethoxy-phenyl)-3,4-dihydro-1H-pyrimido[4,5-d]pyrimidin-2-one], for which the melting point was 167 °C (dec.). Turning to `CCN1C(=O)N(c2c(F)c(OC)cc(OC)c2F)Cc2cnc(NCC(O)CO)nc21` (stereo not drawn) [Example 31, 3-(2,6-Difluoro-3,5-dimethoxy-phenyl)-7-(2,3-dihydroxy-propylamino)-1-ethyl-3,4-dihydro-1H-pyrimido[4,5-d]pyrimidin-2-one], the melting point lay within 148 to 152 °C. `COc1cc(OC)c(F)c(N2Cc3cnc(NC(CO)CO)nc3N(C3CCCC3)C2=O)c1F` [Example 6, 1-Cyclopentyl-3-(2,6-difluoro-3,5-dimethoxy-phenyl)-7-(2-hydroxy-1-hydroxymethyl-ethylamino)-3,4-dihydro-1H-pyrimido[4,5-d]pyrimidin-2-one]: the melting point was in the range of 172 to 174 °C.

For `COc1cc(OC)c(F)c(N2Cc3cnc(NC[C@@H](O)CO)nc3N(C3CCCC3)C2=O)c1` [Example 33, (R)-1-Cyclopentyl-7-(2,3-dihydroxy-propylamino)-3-(2-fluoro-3,5-dimethoxy-phenyl)-3,4-dihydro-1H-pyrimido[4,5-d]pyrimidin-2-one], the melting point was in the range of 89 to 91 °C.

As for `COc1cc(OC)c(F)c(N2Cc3cnc(NCC(O)CO)nc3N(C3CCCC3)C2=O)c1F` (stereo not drawn) [Example 20, 1-Cyclopentyl-3-(2,6-difluoro-3,5-dimethoxy-phenyl)-7-(2,3-dihydroxy-propylamino)-3,4-dihydro-1H-pyrimido[4,5-d]pyrimidin-2-one], the melting point fell in the range of 179 to 182 °C. As for `CCN1C(=O)N(c2c(F)c(OC)cc(OC)c2F)Cc2cnc(NCC(O)C(O)CN)nc21` (stereo not drawn) [Example 18, 7-(4-Amino-2,3-dihydroxy-butylamino)-3-(2,6-difluoro-3,5-dimethoxy-phenyl)-1-ethyl-3,4-dihydro-1H-pyrimido[4,5-d]pyrimidin-2-one], the melting point is 115 °C (dec.). On to `COc1cc(OC)c(F)c(N2Cc3cnc(NC[C@H](O)[C@@H](O)CO)nc3N(C3CCCC3)C2=O)c1F` [Example 4, (S,S)-1-Cyclopentyl-3-(2,6-difluoro-3,5-dimethoxy-phenyl)-7-(2,3,4-trihydroxy-butylamino)-3,4-dihydro-1H-pyrimido[4,5-d]pyrimidin-2-one], for which the melting point was 160 °C (dec.). `CNc1ncc2c(n1)N(C1CCC(C(=O)O)CC1)C(=O)N(c1c(F)c(OC)cc(OC)c1F)C2` (stereo not drawn) [Example 23, 4-[3-(2,6-Difluoro-3,5-dimethoxy-phenyl)-7-methylamino-2-oxo-3,4-dihydro-2H-pyrimido[4,5-d]pyrimidin-1-yl]-cyclohexanecarboxylic Acid] returned a melting point of 148 °C. On to `CCOc1ccc(F)c(N2Cc3cnc(NCCCCN(CC)CC)nc3N(C3CCCC3)C2=O)c1F` [Example 32, 1-Cyclopentyl-7-(4-diethylamino-butylamino)-3-(3-ethoxy-2,6-difluoro-phenyl)-3,4-dihydro-1H-pyrimido[4,5-d]pyrimidin-2-one], for which the melting point was 129 to 130 °C. `CNc1ncc2c(n1)N(C1CCNCC1)C(=O)N(c1c(F)c(OC)cc(OC)c1F)C2.O=C(O)C(F)(F)F`: the melting point was in the range of 135 to 140 °C.
